From US8329737B2, “Benzimidazoles as selective kinase inhibitors” (YM Biosciences Australia PTY Ltd, priority 2004, dated 2012)

These compounds were tested against T1, Jak3 (Homo sapiens, UniProt P52333) (assay: JAK kinase assay (ELISA or Alphascreen), JAK3 kinase domain). Settings: after 20 minute incubation with enzyme (prior to addition of ATP); read-out: apparent “IC50”.
T1 construct: The kinase domain of humanJAK3 was amplified from U937mRNA; His tag (from the pFastBac HTb vector; purified on nickel chelate); made in house; host or cells: baculovirus; Sf9 for virus, High Five insect cells for production
Format: biochemical
Experimental: (§1) For screening purposes, compounds were diluted in 96 well plates at a concentration of 20 μM. Plates were warmed at 37° C. for 30 minutes before assay.
The kinase domain of humanJAK3 was amplified from U937mRNA using the polymerase chain reaction with the following primers: […]
JAK3 PCR products were cloned into the pFastBac HTb expression vector (Gibco®) via the Xho I and Kpn I sites. The JAK3 plasmid was then transformed into competent DH10Bac cells (Gibco®), and the recombinant baculovirus produced prepared for transfection into Sf9 insect cells.
(§2) Baculovirus preparations from each of the JAK family members were infected into five litres of High Five cells (Invitrogen) grown in High Five serum free medium (Invitrogen) to a cell density of approximately 1-2×10^6 cells/ml. Cells are infected with virus at a MOI of 0.8-3.0. Cells were harvested and lysed. JAK kinase domains were purified by affinity chromatography on a Probond (Invitrogen) nickel chelate affinity column.
Kinase assays were performed in a 96 well capture-based ELISA assay or in 384 well Optiplates (Packard) using an Alphascreen Protein Tyrosine Kinase kit. In either case using approximately 1.5 μg of affinity purified PTK domain in the presence of 50 mM HEPES, pH 7.5, 10 mM MgCl2, 150 mM NaCl and 10 μM-1 mM ATP. The biotinylated substrate biotin-EGPWLEEEEEAYGWMDF-NH2 (SEQ ID NO:9) (final concentration 5 μM) was used as substrate. In the ELISA assay tyrosine phosphorylation was quantitated following transfer to an avidin coated ELISA plate using peroxidase-linked anti-phospho-tyrosine antibody PY20. In the Alphascreen assay, Alphascreen phosphotyrosine acceptor beads followed by streptavidin donor beads were added under subdued light. The ELISA plates were read on a BMG Fluorostar, the Alphascreen plates were read on a Packard Fusion Alpha. […] Inhibitors were added in aqueous DMSO, with DMSO concentrations never exceeding 1%.

T1 sequence (P52333 822-1111 limits assumed): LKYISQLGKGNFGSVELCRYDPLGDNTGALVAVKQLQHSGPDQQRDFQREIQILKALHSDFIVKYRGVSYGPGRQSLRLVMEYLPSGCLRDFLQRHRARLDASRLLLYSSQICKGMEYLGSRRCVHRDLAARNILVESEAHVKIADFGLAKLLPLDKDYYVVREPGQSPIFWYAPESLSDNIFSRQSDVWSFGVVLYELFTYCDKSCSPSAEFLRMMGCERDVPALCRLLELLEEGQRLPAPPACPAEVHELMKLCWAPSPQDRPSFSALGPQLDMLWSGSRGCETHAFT

SMILES | IC50
C=CC(=O)Nc1ccc2ncn(-c3cncc(NC(C)(C)C)n3)c2c1 [Example 20, N-{1-[6-(tert-Butylamino)pyrazin-2-yl]-1-H-benzimidazol-6-yl}acrylamide] | ~0.04 µM

Same assay, conditions: after 90 min pre-incubation; read-out: apparent “IC50”

SMILES | IC50
C=CC(=O)Nc1ccc2ncn(-c3cncc(NC(C)(C)C)n3)c2c1 [Example 20, N-{1-[6-(tert-Butylamino)pyrazin-2-yl]-1-H-benzimidazol-6-yl}acrylamide] | 0.007 µM

Same assay, conditions: capacity to inhibit 50% of JAK activity at 20 μM, standard conditions

SMILES | inhibition at 20 µM | Jak3
C#CC(=O)Nc1ccc2ncn(-c3cncc(NC(C)(C)C)n3)c2c1 | > 50% | 
C=CC(=O)Nc1ccc2ncn(-c3cncc(N(C)C)n3)c2c1 | > 50% | 
C=CC(=O)Nc1ccc2ncn(-c3cncc(Cl)n3)c2c1 [N-[1-(6-Chloropyrazin-2-yl)-1H-benzimidazol-6-yl]acrylamide] | > 50% | 
C=CC(=O)Nc1ccc2ncn(-c3cncc(-c4ccncc4)n3)c2c1 | > 50% | 
C=CC(=O)Nc1ccc2ncn(-c3cncc(Nc4ccccc4)n3)c2c1 [N-[1-(6-Anilinopyrazin-2-yl)-1H-benzimidazol-6-yl]acrylamide] |  | + (Compounds that exhibited a capacity to inhibit 50% of JAK activity at a concentration of 20 μM (measured under standard conditions, see Methods), are designated as “+”)
C=CC(=O)Nc1ccc2ncn(-c3cncc(N4CCOCC4)n3)c2c1 [N-[1-(6-morpholin-4-ylpyrazin-2-yl)-1H-benzimidazol-6-yl]acrylamide] | > 50% | 
C=CC(=O)Nc1ccc2ncn(-c3cncc(-c4cn[nH]c4)n3)c2c1 [N-{1-[6-(1H-Pyrazol-4-yl)pyrazin-2-yl]-1H-benzimidazol-6-yl}acrylamide] | > 50% | 
C=CC(=O)Nc1ccc2ncn(-c3cncc(N[C@@H](C)c4ccccc4)n3)c2c1 [N-[1-(6-([(1S)-1-Phenylethyl]amino]pyrazin-2-yl)-1H-benzimidazol-6-yl)acrylamide] | > 50% | 
C=CC(=O)Nc1ccc2ncn(-c3cncc(N4CCCC4)n3)c2c1 | > 50% | 
C=CC(=O)Nc1ccc2ncn(-c3cncc(-c4ccc(C)o4)n3)c2c1 | > 50% | 
C=CC(=O)Nc1ccc2ncn(-c3cncc(N4CCN(C)CC4)n3)c2c1 [N-{1-[6-(4-Methylpiperazin-1-yl)pyrazin-2-yl]-1H-benzimidazol-6-yl}acrylamide] | > 50% | 
C=C(C)C(=O)Nc1ccc2ncn(-c3cncc(NC(C)(C)C)n3)c2c1 | > 50% | 
C=CC(=O)Nc1ccc2ncn(-c3cncc(NC)n3)c2c1 [N-{1-[6-(Methylamino)pyrazin-2-yl]-1H-benzimidazol-6-yl}acrylamide] | > 50% | 
C=CC(=O)Nc1ccc2ncn(-c3cncc(-c4ccccc4)n3)c2c1 [N-[1-(6-Phenylpyrazin-2-yl)-1H-benzimidazol-6-yl]acrylamide] | > 50% | 
C=CC(=O)Nc1ccc2ncn(-c3cncc(N4CCCCC4)n3)c2c1 | > 50% | 
C=CC(=O)Nc1ccc2ncn(-c3cncc(N[C@@H](C)CC)n3)c2c1 | > 50% | 
C=CC(=O)Nc1ccc2ncn(-c3cncc(N(C)C(C)C)n3)c2c1 | > 50% | 
C=CC(=O)Nc1ccc2ncn(-c3cncc(-c4ccc(F)c(Cl)c4)n3)c2c1 [N-{1-[6-(3-Chloro-4-fluorophenyl)pyrazin-2-yl]-1H-benzimidazol-6-yl}acrylamide] | > 50% | 
C=CC(=O)Nc1ccc2ncn(-c3cncc(-c4cccnc4)n3)c2c1 | > 50% | 
C=CC(=O)Nc1ccc2ncn(-c3cncc(NCC4CC4)n3)c2c1 | > 50% | 
C=CC(=O)Nc1ccc2ncn(-c3cncc(NC(C)(C)C)n3)c2c1 [drawing 98] | > 50% | 
C=CC(=O)Nc1ccc2ncn(-c3cncc(N[C@H](C)CC)n3)c2c1 | > 50% | 
C=CC(=O)Nc1ccc2ncn(-c3cncc(-c4ccsc4)n3)c2c1 [N-[1-(6-Thien-3-ylpyrazin-2-yl)-1H-benzimidazol-6-yl]acrylamide] | > 50% | 
C=CC(=O)Nc1ccc2ncn(-c3cncc(NC(C)C)n3)c2c1 [N-{1-[6-(Isopropylamino)pyrazin-2-yl]-1H-benzimidazol-6-yl]acrylamide] | > 50% | 

What follows are compounds tested against T2, Jak2 (Homo sapiens, UniProt O60674) (assay: JAK kinase assay (ELISA or Alphascreen), JAK2 kinase domain). Settings: capacity to inhibit 50% of JAK activity at 20 μM, standard conditions.
T2 construct: The kinase domain of humanJAK2 was amplified from U937mRNA; His tag (from the pFastBac HTc vector; purified on nickel chelate); made in house; host or cells: baculovirus; Sf9 for virus, High Five insect cells for production
Format: biochemical
Experimental: as §1
The kinase domain of humanJAK2 was amplified from U937mRNA using the polymerase chain reaction with the following primers: […]
JAK2 PCR products were cloned into the pFastBac HTc expression vector (Gibco®) via the Sal I and Not I sites. The JAK2 plasmid was then transformed into competent DH10Bac cells (Gibco®), and the recombinant baculovirus produced prepared for transfection into Sf9 insect cells.
as §2, with “JAK kinase domains were purified by affinity chromatography on a Probond (Invitrogen) nickel chelate affinity column.” left out
Kinase assays were performed in a 96 well capture-based ELISA assay or in 384 well Optiplates (Packard) using an Alphascreen Protein Tyrosine Kinase kit. […] In the ELISA assay tyrosine phosphorylation was quantitated following transfer to an avidin coated ELISA plate using peroxidase-linked anti-phospho-tyrosine antibody PY20. […] The ELISA plates were read on a BMG Fluorostar, the Alphascreen plates were read on a Packard Fusion Alpha. […]

T2 sequence (O60674 849-1124 limits assumed): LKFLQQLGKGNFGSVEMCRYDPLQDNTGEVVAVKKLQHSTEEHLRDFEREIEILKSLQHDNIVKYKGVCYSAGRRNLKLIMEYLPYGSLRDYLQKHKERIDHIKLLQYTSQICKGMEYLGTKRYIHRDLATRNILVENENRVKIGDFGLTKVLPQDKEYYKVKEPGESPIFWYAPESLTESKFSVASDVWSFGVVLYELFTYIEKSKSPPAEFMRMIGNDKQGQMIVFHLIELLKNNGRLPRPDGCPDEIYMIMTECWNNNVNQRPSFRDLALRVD

SMILES | Jak2
C=CC(=O)Nc1ccc2ncn(-c3cncc(N[C@@H](C)c4ccccc4)n3)c2c1 [N-[1-(6-([(1S)-1-Phenylethyl]amino]pyrazin-2-yl)-1H-benzimidazol-6-yl)acrylamide] | + (Compounds that exhibited a capacity to inhibit 50% of JAK activity at a concentration of 20 μM (measured under standard conditions, see Methods), are designated as “+”)
